From patent publication US20030157672A1, “Nitrilase from rhodococcus rhodochrous ncimb 11216” (priority 2000, published 2003)

Legend:
[1] = test system: nitrilase (nitA) from Rhodococcus rhodochrous NCIMB 11216 expressed in E. coli JM 109; experiment: Conversion of nitriles by E. coli JM 109 (pDHE 17 and pDHE 18) cells; NH4 ions produced in supernatant, measured at 620 nm; format: biochemical; conditions: 30° C., 1 h, measurement at 620 nm; for amount of NH4 ions produced in the supernatant (Table 2, Experiment 2): Experiment 2, in analogy to Experiment 1, E. coli JM 109 cells; for amount of NH4 ions produced in the supernatant (Table 1, Experiment 1): E. coli JM 109 (pDHE 17 and pDHE 18) cells, 2 g DBM/l, 200 rpm
Description: Various nitriles were converted using the E. coli strains JM 109 (pDHE 17 and pDHE 18). The cells were for this purpose cultured in 250 ml LB/Amp medium+2 g/l rhamnose at 30° C. and 200 rpm for 9 hours (=h). The cells were harvested by-centrifugation (20 min, 4° C., 5000 rpm). The cells were then resuspended in 10 mM phosphate buffer, pH 7.2, so that the concentration of dry biomass (DBM) was 2 g DBM/l. 150 μl portions of the cell suspension were pipetted into each well of a microtiter plate. The plate was then centrifuged. The supernatant was aspirated off and the cell pellets were washed twice with Na2HPO4 [sic] (1.42 g/lin Finnagua, pH 7.2). After another centrifugation step, the cell pellets are [sic] resuspended in the respective substrate solution (150 μl). One substrate was added to each row of 12 in the microtiter plate. A row with substrate solution but without cells was used as control (blank). The microtiter plates were incubated in a shaking incubator at 30° C. and 200 rpm for 1 h. The cells were then spun down and the amount of NH4 [sic] ions produced in the supernatant was determined using a Biomek instrument. Measurement took place at 620 nm, comparing with a calibration plot produced using various NH4OH solutions. The substrates employed in Experiment 1 (see FIG. 3, Table 1) were the following substrates: benzonitrile (=1), 3-hydroxypropionitrile (=2), 2-methylglutaronitrile (=3), 4-chloro-3-hydroxybutyronitrile (=4), malononitrile (=5), crotononitrile (=6), geranonitrile (=7), octanedinitrile (=8), pivalonitrile (=9), aminocapronitrile (=10), 3,4-dihydroxybenzonitrile (=11), 3,5-dibromo-4-hydroxybenzonitrile (=12), 3-cyanopyridine (=13), 4-bromobenzyl cyanide (=14), 4-chlorobenzyl cyanide (=15), 2-phenylbutyronitrile (=16), 2-chlorobenzyl cyanide (=17), 2-pyridylacetonitrile (=18), 4-fluorobenzyl cyanide (=19), 4-methylbenzonitrile (=20), benzyl cyanide (=21). The substrates used in Experiment 2 (see FIG. 4, Table 2), which was carried out in analogy to Experiment 1, were as follows: […]

[2] = Conversion of benzonitrile into benzoic acid by nitrilase crude extract or purified nitrilase (HPLC); format: biochemical; conditions: purified using QIAexpress-Ni2+-NTA; enzyme concentration 50 μg/ml; initial benzonitrile 10 mM, 30° C., pH 7.5, 50 mM Tris/HCl, 0.1 mM DTT
Description: For heterologous expression on the laboratory scale, JM 109 (pDHE 17) from a 37° C. overnight culture was inoculated 1:200 in 50 ml dYT complete mediumn (Sambrook et al., 1989) with 0.2% L-rhamnose, and the culture was cultivated with induction in the shaking water bath at 30° C. for 8 h. The cells were then washed once in 50 mM Tris/HCl, pH 7.5, resuspended in the same buffer equivalent to an OD600 of 10, and disrupted by ultrasound treatment. The procedure with JM 109 (pDHE 18) was analogous. The protein pattern of the crude extracts obtained by ultrasound treatment and clarified by centrifugation was determined by SDS polyacrylamide gel electrophoresis, comparing with the noninduced control; with the induction conditions mentioned, the proportion of nitrilase in the protein was about 30% for each of JM 109 (pDHE 17) and JM 109 (pDHE 18).
The nitrilase with His6 motif from JM 109 (pDHE 18) was purified by washing the cells in 50 mM Tris/HCl, pH 7.5, resuspending equivalent to about 50 OD600/ml and preparing extracts with a French press (2×at 20000 psi). […]
In this case, one unit is equivalent to the production of 1 μmol of benzoic acid at an initial benzonitrile concentration of 10 mM, 30° C. and pH 7.5. […] The formation of benzoic acid was determined by HPLC (RP18 column, 250×4 [lacuna], mobile phase 47% methanol, 0.3% H3PO4).

Row | Molecule | amount of NH4 ions produced in the supernatant (Table 2, Experiment 2) [1] | amount of NH4 ions produced in the supernatant (Table 1, Experiment 1) [1] | further results
1 | CCC#N [Propionitrile] | 0.4135 | – | –
2 | CC(C#N)CCC#N (stereo not shown) [2-Methylglutaronitrile] | – | 0.4758 | –
3 | N#Cc1ccsc1 [3-Cyanothiophene] | 1.9038 | – | –
4 | CC=CC#N [Crotononitrile] | – | 0.4946 | –
5 | N#Cc1ccc(O)c(O)c1 [3,4-Dihydroxybenzonitrile] | – | 0.1569 | –
6 | N#CCc1ccccn1 [2-Pyridylacetonitrile] | – | 0.1222 | –
7 | N#CCC(O)CCl (stereo not shown) [4-Chloro-3-hydroxybutyronitrile] | – | 0.1208 | –
8 | N#CCc1ccc(Br)cc1 [4-Bromobenzyl cyanide] | – | 0.5213 | –
9 | CC(C)=CCC/C(C)=C/C#N [Geranonitrile] | – | 0.1517 | –
10 | N#CCc1ccsc1 [3-Cyanomethylthiophene] | 0.9949 | – | –
11 | CCC(C#N)c1ccccc1 (stereo not shown) [2-Phenylbutyronitrile] | – | 0.1376 | –
12 | N#CCCCCCN [Aminocapronitrile] | – | 0.1236 | –
13 | N#C/C=C/C#N [Fumaronitrile] | 2.2510 | – | –
14 | N#CC(N)c1ccccc1 (stereo not shown) [2-Amino-2-phenylacetonitrile] | 0.0000 | – | –
15 | Cc1ccc(C#N)cc1 [4-Methylbenzonitrile] | – | 0.4326 | –
16 | N#CCc1ccccc1Cl [2-Chlorobenzyl cyanide] | – | 0.4530 | –
17 | COC(CC#N)OC [3,3-Dimethoxypropionitrile] | 0.1466 | – | –
18 | N#CCC(CC#N)c1ccccc1 [3-Phenylglutaronitrile] | 0.0000 | – | –

Row | Molecule | amount of NH4 ions produced in the supernatant (Table 2, Experiment 2) [1] | amount of NH4 ions produced in the supernatant (Table 1, Experiment 1) [1] | further results
19 | CC(C)(C)C#N [Pivalonitrile] | – | 0.1569 | –
20 | N#C/C=C/c1ccccc1 [trans-cinnamonitrile] | 2.2509 | – | –
21 | N#CC(O)CCc1ccccc1 (stereo not shown) [2-Hydroxy-4-phenylbutyronitrile] | 0.0000 | – | –
22 | N#Cc1ccccc1 [Benzonitrile] | 1.9518 | 0.4051 | –
23 | N#Cc1cccnc1 [3-Cyanopyridine] | – | 0.2393 | –
24 | N#CCCCCCCC#N [Octanedinitrile] | – | 0.4548 | –
25 | N#CC(O)c1ccccc1 (stereo not shown) [Mandelonitrile] | 0.0000 | – | –
26 | CC(C#N)c1ccccc1 (stereo not shown) [2-Phenylpropionitrile] | 0.0000 | – | –
27 | CC(O)C#N (stereo not shown) [2-Hydroxypropionitrile] | 0.0000 | – | –
28 | N#CCCO [3-Hydroxypropionitrile] | – | 0.1785 | –
29 | N#CCC#N [Malononitrile] | – | 0.1208 | –
30 | N#CCc1ccccc1 [Benzyl cyanide] | – | 0.2755 | –
31 | N#CCCCC#N [Glutaronitrile] | 2.0809 | – | –
32 | N#Cc1cc(Br)c(O)c(Br)c1 [3,5-Dibromo-4-hydroxybenzonitrile] | – | 0.1624 | –
33 | CCCCC#N [Valeronitrile] | 1.9218 | – | –
34 | N#CCc1ccc(Cl)cc1 [4-Chlorobenzyl cyanide] | – | 0.4830 | –
35 | N#CCc1ccc(F)cc1 [4-Fluorobenzyl cyanide] | – | 0.2361 | –
36 | nitrilase with His6 motif: Recombinant nitA nitrilase of R. rhodochrous NCIMB 11216 with C-terminal His6 motif from E. coli JM 109 (pDHE 18), purified on Ni2+-NTA (protein, UniProt Q03217 2-366, looked up, C-terminal His6 tag, Recombinant nitA nitrilase of R. rhodochrous NCIMB 11216 with C-terminal His6 motif from E. coli JM 109 (pDHE 18), purified on Ni2+-NTA) Aliphatic nitrilase: VEYTNTFKVAAVQAQPVWFDAAKTVDKTVSIIAEAARNGCELVAFPEVFIPGYPYHIWVDSPLAGMAKFAVRYHENSLTMDSPHVQRLLDAARDHNIAVVVGISERDGGSLYMTQLVIDADGQLVARRRKLKPTHVERSVYGEGNGSDISVYDMPFARLGALNCWEHFQTLTKYAMYSMHEQVHVASWPGMSLYQPEVPAFGVDAQLTATRMYALEGQTFVVCTTQVVTPEAHEFFCDNDEQRKLIGRGGGFARIIGPDGRDLATPLAEDEEGILYADIDLSAITLAKQAADPVGHYSRPDVLSLNFNQRHTTPVNTAISTIHATHTLVPQSGALDGVRELNGADEQRALPSTHSDETDRATASI | – | – | conversion of 2-benzonitrile [sic] into benzoic acid (specific activity), purified nitrilase [2]: around 11 U/mg
